Reference: US20230346827A1 (priority 2020, published 2023)

System: rats subjected to sTBI
Assay: sTBI rats, LMW-DS 1, 5, 15 mg/kg s.c. 30 min post-TBI: HPLC of brain free amino acids (Example 4)
Format: in vivo, rat
Conditions: for HYS concentration in deproteinized brain homogenate / ILE concentration in deproteinized brain homogenate / LEU concentration in deproteinized brain homogenate / LYS concentration in deproteinized brain homogenate / PHE concentration in deproteinized brain homogenate / TAU concentration in deproteinized brain homogenate / TRP concentration in deproteinized brain homogenate / TYR concentration in deproteinized brain homogenate / VAL concentration in deproteinized brain homogenate: rats 7 days post-sTBI, mean ± S.D. of 12 animals
[1] = 15 mg/kg repeated, 7 d post-sTBI
[2] = repeated administration of 15 mg/kg b.w.
[3] = single administration 1 mg/kg b.w.
[4] = single administration 5 mg/kg b.w.
[5] = single administration 15 mg/kg b.w.

Substance: sodium salt of dextran sulfate [LMW-DS]
- GLN [1]: 3.88 ± 0.40 nmol/g w.w.
- GLU [1]: 10.78 ± 0.91 nmol/g w.w.
- GLY [1]: 0.78 ± 0.10 nmol/g w.w.
- L-Cystat [1]: 0.44 ± 0.07 nmol/g w.w.
- MET [1]: 0.05 ± 0.01 nmol/g w.w.
- ORN [1]: 0.02 ± 0.01 nmol/g w.w.
- SAH [1]: 0.04 ± 0.04 nmol/g w.w.
- SER [1]: 0.79 ± 0.13 nmol/g w.w.
- THR [1]: 0.77 ± 0.14 nmol/g w.w.
- ALA (15 mg/kg, 2 d post-sTBI): 0.68 ± 0.07 nmol/g w.w.
- ARG (15 mg/kg, 2 d post-sTBI): 0.16 ± 0.04 nmol/g w.w.
- ASN (15 mg/kg, 2 d post-sTBI): 0.17 ± 0.03 nmol/g w.w.
- ASP (15 mg/kg, 2 d post-sTBI): 3.05 ± 0.42 nmol/g w.w.
- CITR (15 mg/kg, 2 d post-sTBI): 0.01 ± 0.01 nmol/g w.w.
- GABA (15 mg/kg, 2 d post-sTBI): 1.58 ± 0.14 µmol/g w.w.
- GLN (15 mg/kg, 2 d post-sTBI): 4.21 ± 0.51 nmol/g w.w.
- GLU (15 mg/kg, 2 d post-sTBI): 11.79 ± 0.55 nmol/g w.w.
- GLY (15 mg/kg, 2 d post-sTBI): 1.18 ± 0.23 nmol/g w.w.
- HYS (15 mg/kg, 2 d post-sTBI): 0.10 ± 0.01 nmol/g w.w.
- ILE (15 mg/kg, 2 d post-sTBI): 0.06 ± 0.01 nmol/g w.w.
- L-Cystat (15 mg/kg, 2 d post-sTBI): 0.41 ± 0.08 nmol/g w.w.
- LEU (15 mg/kg, 2 d post-sTBI): 0.04 ± 0.01 nmol/g w.w.
- LYS (15 mg/kg, 2 d post-sTBI): 0.32 ± 0.12 nmol/g w.w.
- MET (15 mg/kg, 2 d post-sTBI): 0.03 ± 0.01 nmol/g w.w.
- ORN (15 mg/kg, 2 d post-sTBI): 0.02 ± 0.01 nmol/g w.w.
- PHE (15 mg/kg, 2 d post-sTBI): 0.06 ± 0.01 nmol/g w.w.
- SAH (15 mg/kg, 2 d post-sTBI): 0.06 ± 0.02 nmol/g w.w.
- SER (15 mg/kg, 2 d post-sTBI): 0.76 ± 0.06 nmol/g w.w.
- TAU (15 mg/kg, 2 d post-sTBI): 4.59 ± 0.43 nmol/g w.w.
- THR (15 mg/kg, 2 d post-sTBI): 0.61 ± 0.13 nmol/g w.w.
- TRP (15 mg/kg, 2 d post-sTBI): 0.04 ± 0.01 nmol/g w.w.
- TYR (15 mg/kg, 2 d post-sTBI): 0.17 ± 0.03 nmol/g w.w.
- VAL (15 mg/kg, 2 d post-sTBI): 0.06 ± 0.03 nmol/g w.w.
- ALA (15 mg/kg, 7 d post-sTBI): 0.38 ± 0.04 nmol/g w.w.
- ARG (15 mg/kg, 7 d post-sTBI): 0.14 ± 0.02 nmol/g w.w.
- ASN (15 mg/kg, 7 d post-sTBI): 0.10 ± 0.02 nmol/g w.w.
- ASP (15 mg/kg, 7 d post-sTBI): 2.29 ± 0.37 nmol/g w.w.
- CITR (15 mg/kg, 7 d post-sTBI): 0.03 ± 0.01 nmol/g w.w.
- GABA (15 mg/kg, 7 d post-sTBI): 1.43 ± 0.15 µmol/g w.w.
- GLN (15 mg/kg, 7 d post-sTBI): 3.73 ± 0.38 nmol/g w.w.
- GLU (15 mg/kg, 7 d post-sTBI): 10.25 ± 0.86 nmol/g w.w.
- GLY (15 mg/kg, 7 d post-sTBI): 0.78 ± 0.12 nmol/g w.w.
- L-Cystat (15 mg/kg, 7 d post-sTBI): 0.25 ± 0.04 nmol/g w.w.
- MET (15 mg/kg, 7 d post-sTBI): 0.04 ± 0.01 nmol/g w.w.
- ORN (15 mg/kg, 7 d post-sTBI): 0.01 ± 0.01 nmol/g w.w.
- SAH (15 mg/kg, 7 d post-sTBI): 0.04 ± 0.01 nmol/g w.w.
- SER (15 mg/kg, 7 d post-sTBI): 0.76 ± 0.12 nmol/g w.w.
- THR (15 mg/kg, 7 d post-sTBI): 0.72 ± 0.14 nmol/g w.w.
- HYS concentration in deproteinized brain homogenate [2]: 0.06 ± 0.01 nmol/g w.w.
- ILE concentration in deproteinized brain homogenate [2]: 0.03 ± 0.01 nmol/g w.w.
- LEU concentration in deproteinized brain homogenate [2]: 0.04 ± 0.01 nmol/g w.w.
- LYS concentration in deproteinized brain homogenate [2]: 0.23 ± 0.07 nmol/g w.w.
- PHE concentration in deproteinized brain homogenate [2]: 0.05 ± 0.01 nmol/g w.w.
- TAU concentration in deproteinized brain homogenate [2]: 3.47 ± 0.44 nmol/g w.w.
- TRP concentration in deproteinized brain homogenate [2]: 0.03 ± 0.01 nmol/g w.w.
- TYR concentration in deproteinized brain homogenate [2]: 0.14 ± 0.02 nmol/g w.w.
- VAL concentration in deproteinized brain homogenate [2]: 0.07 ± 0.01 nmol/g w.w.
- HYS concentration in deproteinized brain homogenate [3]: 0.06 ± 0.01 nmol/g w.w.
- ILE concentration in deproteinized brain homogenate [3]: 0.04 ± 0.01 nmol/g w.w.
- LEU concentration in deproteinized brain homogenate [3]: 0.05 ± 0.01 nmol/g w.w.
- LYS concentration in deproteinized brain homogenate [3]: 0.19 ± 0.06 nmol/g w.w.
- PHE concentration in deproteinized brain homogenate [3]: 0.05 ± 0.01 nmol/g w.w.
- TAU concentration in deproteinized brain homogenate [3]: 4.02 ± 0.51 nmol/g w.w.
- TRP concentration in deproteinized brain homogenate [3]: 0.01 ± 0.01 nmol/g w.w.
- TYR concentration in deproteinized brain homogenate [3]: 0.13 ± 0.02 nmol/g w.w.
- VAL concentration in deproteinized brain homogenate [3]: 0.08 ± 0.01 nmol/g w.w.
- HYS concentration in deproteinized brain homogenate [4]: 0.06 ± 0.01 nmol/g w.w.
- ILE concentration in deproteinized brain homogenate [4]: 0.05 ± 0.01 nmol/g w.w.
- LEU concentration in deproteinized brain homogenate [4]: 0.05 ± 0.01 nmol/g w.w.
- LYS concentration in deproteinized brain homogenate [4]: 0.21 ± 0.04 nmol/g w.w.
- PHE concentration in deproteinized brain homogenate [4]: 0.06 ± 0.01 nmol/g w.w.
- TAU concentration in deproteinized brain homogenate [4]: 3.51 ± 0.44 nmol/g w.w.
- TRP concentration in deproteinized brain homogenate [4]: 0.02 ± 0.01 nmol/g w.w.
- TYR concentration in deproteinized brain homogenate [4]: 0.13 ± 0.02 nmol/g w.w.
- VAL concentration in deproteinized brain homogenate [4]: 0.08 ± 0.01 nmol/g w.w.
- HYS concentration in deproteinized brain homogenate [5]: 0.06 ± 0.01 nmol/g w.w.
- ILE concentration in deproteinized brain homogenate [5]: 0.07 ± 0.01 nmol/g w.w.
- LEU concentration in deproteinized brain homogenate [5]: 0.07 ± 0.01 nmol/g w.w.
- LYS concentration in deproteinized brain homogenate [5]: 0.21 ± 0.05 nmol/g w.w.
- PHE concentration in deproteinized brain homogenate [5]: 0.07 ± 0.01 nmol/g w.w.
- TAU concentration in deproteinized brain homogenate [5]: 3.38 ± 0.44 nmol/g w.w.
- TRP concentration in deproteinized brain homogenate [5]: 0.03 ± 0.01 nmol/g w.w.
- TYR concentration in deproteinized brain homogenate [5]: 0.14 ± 0.02 nmol/g w.w.
- VAL concentration in deproteinized brain homogenate [5]: 0.10 ± 0.01 nmol/g w.w.
